The test system of one assay is mice exposed to L-TBI. The assay can be described thus: Complete blood counts (peripheral blood recovery) after L-TBI. The class given is in vivo, mouse. The note with it: vs vehicle. The source says:
Description. Inhibition of sex steroids, which can be achieved in a reversible fashion pharmacologically, is a well-described strategy to promote lymphopoiesis in the BM and thymus^8,7,14,15. Although the most common method of sex steroid ablation clinically has been to use LHRH-agonists, it was described that an LHRH-Antagonist represents a more rational approach to promote immediate ablation of sex steroids for immune regeneration as it is far more rapid and abrogates the initial surge in sex steroids that LHRH-Agonist cause^16. Taken together with the impact of sex steroid inhibition on HSC function and the rapid regenerative effects of LHRH-Ant, it was hypothesized that LHRH-Ant could represent a rational non-cellular medical countermeasure for mitigating radiation injury and promoting hematopoietic regeneration when administered after hematopoietic insult. To test this hypothesis, a lethal TBI (L-TBI) dose of 840cGy that mediated lethality in more than 90% of mice (FIG. 1A) was used. […] Mouse lethality was a result of bone marrow failure, since transplant of BM Lin-Sca1^+tkit^+ (LSK) cells 3 days after L-TBI completely rescued all mice (FIG. 1B). […] It was then tested if LHRH-Ant could mediate even greater mouse survival when administered multiple times.
Methods. […] To assess mouse survival after radiation, mice were monitored for up to 60 days after TBI. […]

Another assay has as its system LT-HSCs. The assay can be described thus: Gene expression in LT-HSCs purified after 300cGy irradiation. The assay is classed as in vivo, mouse. On the procedure:
To gain some insights in to the molecular changes mediated by LHRH-Ant treatment on HSCs LT-HSCs were purified after 300cGy irradiation and expression of key genes associated with quiescence, proliferation, DNA damage response and apoptosis of HSCs was assessed. […] Importantly, both Bcl-2 and Mcl-1 have been implicated in regulating HSC quiescence and survival respectively^45,46.
Real time PCR: Reverse transcription-PCR was performed with QuantiTect reverse transcription kit (QIAGEN). For real-time PCR, specific primer and probe sets were obtained from Applied Biosystems as follows: β-actin (Mm01205647_g1); HPRT (Mm00446968_m1); AR (Mm00442688_m1); FSHR (Mm00442819_m1); LHCGR (Mm00442931_m1). PCR was done on ABI 7500 (Applied Biosystems) or Step-One Plus (Applied Biosystems) with TaqMan Universal PCR Master Mix (Applied Biosystems). Relative amounts of mRNA were calculated by the Ct method.
Statistics: Bars and error bars represent the mean+SEM for the various groups. For most experiments, nonparametric testing was performed if normal distribution could not be assumed. All tests performed are two sided. Statistical analysis between two groups was performed with the nonparametric, unpaired Mann-Whitney U test. Tests performed are two sided, except for gene category analysis. Differential expression of gene categories was computed using Fisher's method and the input p-value for each individual gene from a category is computed from a one sided test. Survival data were analyzed with the Mantel-Cox log-rank test. Parametric t test was used for FIG. 6H right panel. The experiments were not randomized and the investigators were not blinded to the group allocation during the experiments or when assessing the outcomes. To ensure adequate power for statistical analysis at least five samples per group were tested. In general variation within groups and between experiments was low, however to take into account inter-experimental variation all experiments were performed at least twice. To account for intra-experimental variation, particularly for in vitro studies, several wells per conditions were assessed with primary sample material coming from at least two different mice. No samples or animals were excluded from the analysis except for mouse peripheral blood analysis where outliers were detected prior to the analysis with two-sided Grubbs' test for outliers (GraphPad). All statistics were calculated and display graphs generated using GraphPad 6.

Where a SMILES comes first, the peptide text is derived from it. [ ]: non-standard residue; d: D form. The star is where a group is joined. dPhe(4-NHCONH2) = NC(=O)Nc1ccc(C[C@@H](N)C(=O)O)cc1; Dihydroorotyl(S) = O=C1C[C@@H](C(=O)*)NC(=O)N1; dPhe(4-Cl) = N[C@H](Cc1ccc(Cl)cc1)C(=O)O; Phe(4-NH2) = Nc1ccc(C[C@H](N)C(=O)O)cc1; d2Nal = N[C@H](Cc1ccc2ccccc2c1)C(=O)O; Lys(iPr) = CC(C)NCCCC[C@H](N)C(=O)O; d3Pal = N[C@H](Cc1cccnc1)C(=O)O

With `CC(=O)N[C@H](Cc1ccc2ccccc2c1)C(=O)N[C@H](Cc1ccc(Cl)cc1)C(=O)N[C@H](Cc1cccnc1)C(=O)N[C@@H](CO)C(=O)N[C@@H](Cc1ccc(NC(=O)[C@@H]2CC(=O)NC(=O)N2)cc1)C(=O)N[C@H](Cc1ccc(NC(N)=O)cc1)C(=O)N[C@@H](CC(C)C)C(=O)N[C@@H](CCCCNC(C)C)C(=O)N1CCC[C@H]1C(=O)N[C@H](C)C(N)=O` [LHRH-Ant, Degarelix] (Ac-[d2Nal][dPhe(4-Cl)][d3Pal]S[Phe(4-NH2)](Dihydroorotyl(S))[dPhe(4-NHCONH2)]L[Lys(iPr)]P[dA]-NH2), the “complete blood counts recovery after L-TBI” value in the assay with mice exposed to L-TBI is recorded as “recovered after L-TBI”. Further, in the assay on LT-HSCs, the “expression level of Cdknla (p21)” value is reported as “significantly higher levels”, the “expression level of Hest” value is reported as “significantly higher levels”, the “expression of anti-apoptotic gene Bcl2” value is “significantly increased” and the “expression of anti-apoptotic gene Mcl1” value is recorded as “significantly increased”. The “expression of genes related to apoptosis” value with LT-HSCs (p=0.004) is given as “significant overexpression”. Besides, the “expression of genes related to quiescence” value with LT-HSCs (p=0.02) is “significant overexpression”.

For the origin of these results see patent US12295973B2 (Fred Hutchinson Cancer Center, priority 2017, dated 2025).
